The results in this text go back to patent publication US6054441A, “Oxypurine nucleosides and their congeners, and acyl derivatives thereof, for improvement of hematopoiesis” (priority 1995, dated 2000).

For experiment [1], the system named is hematopoietic recovery after cyclophosphamide. Kind of experiment: Hematopoietic recovery after cyclophosphamide (Example 50). Type of experiment: in vivo, Balb/C mice. The settings on record: 2 μmoles/mouse. The method, then:
Cyclophosphamide (CP) (275 mg/kg, i.p.) was administered to 96 Balb/C female mice weighing approximately 20 grams each. Twenty-four hours later and each day thereafter mice were given a 0.4 ml i.p. injection of either Tween-80 (0.2%) (controls), palmitoyldeoxyguanosine (2 μmoles/mouse), palmitoyldeoxyinosine (2 μmoles/mouse), palmitoylacyclovir (2 μmoles/mouse), palmitoylarabinosylguanine (2 μmoles/mouse), palmitoylarabinosylhypoxanthine (2 μmoles/mouse), monopalmitoylguanosine 2',3'-acyclic dialcohol (2 μmoles/mouse), and palmitoyl-8-thioguanosine (2 μmoles/mouse). On days 5 and 7 following CP administration 6 animals in each of the 8 groups were bled and then sacrificed by cervical dislocation. Spleens were removed and weighed, and complete blood cell counts performed.

For experiment [2], the system named is blood cell counts after cyclophosphamide. Description: Hematopoietic recovery after cyclophosphamide (Example 62). The class given is in vivo, Balb/C mice. The settings on record: for Spleen: 25 mg/kg TriPdG or molar equivalent. As for the experimental part: Thirty-six female Balb/C mice weighing approximately 20 grams each received a 0.4 ml i.p. injection of either 3',5'-O-N^2 -tripalmitoyl-2'-deoxyguanosine (triPdG) at a dose of 25 mg/kg/treatment or 3',5'-O-dipalmitoyl-2'-deoxyguanosine (diPdG) at a dose that was the molar equivalent of 25 mg/kg tripalmitoylgdeoxyguanosine, in a Tween-DMSO vehicle (0.2% Tween-80 and 7.5% DMSO in saline) or vehicle alone one time daily for five days following a single injection of cyclophosphamide (CP) (250 mg/kg, i.p.). On days 5 and 7 following CP administration six animals from each of these three groups were bled and then sacrificed by cervical dislocation. Six untreated mice were also bled and sacrificed to provide data on normal. (basal) values. Spleens were removed and weighed, and complete blood cell counts performed.

Experiment [3] shares this test system. Description: Hematopoietic recovery after cyclophosphamide (Example 63). The class given is in vivo, Balb-C mice. The conditions noted are these: for Spleen: 25 mg/kg TriPdG or molar equivalent. The method, then:
Fifty-eight female Balb-C mice weighing approximately 20 grams each received a single injection of cyclophosphamide (250 mg/kg, i.p.), and were then distributed into a vehicle control group (0.2% Tween-80+7.5% DMSO in saline; n=12) or one of five treatment groups:
Vehicle or treatment agents were administered to mice once daily for five days at a volume of 0.4 ml by i.p. injection. TriPdG was given at a dose of 25 mg/kg/treatment. The other four agents were given in doses that are the molar equivalent of 25 mg/kg/treatment of TriPdG. On days 5 and 7 following CP administration half of the animals from each of the six groups were bled and then sacrificed by cervical dislocation. Five untreated mice were also bled and sacrificed to provide data on normal (basal) values. Spleens were removed and weighed, and complete blood cell counts performed.

The subject of experiment [4] is blood cell counts after 5-fluorouracil. Kind of experiment: Pretreatment dose response, recovery after 5-fluorouracil (Example 65). Type of experiment: in vivo, Balb/C mice. The method, then:
Sixty female Balb/C mice weighing approximately 20 grams each were distributed into one of five treatment groups and treated once daily for three days by i.p. injection with 3',5'-O-N^2 -tripalmitoyl-2'-deoxyguanosine at a dose of either 1, 5, 10, 25, or 50 mg/kg/treatment in a Tween-DMSO vehicle (0.2% Tween-80 and 7.5% DMSO in physiological saline). Injection volume was 0.4 ml. An additional twelve animals (controls) received vehicle alone on those three days. On the fourth day all seventy-two animals received a single i.p. injection of 5-fluorouracil (5-FU) at a dose of 150 mg/kg. On days 7 and 10 following 5-FU administration six mice from each group were bled and then sacrificed by cervical dislocation. Six untreated mice were also bled and sacrificed to provide data on normal (basal) values. Spleens were removed and weighed, and complete blood cell counts performed.

In experiment [5] the test system is bone marrow cells. Description: Proliferation of bone marrow cells in long-term culture (Example 68). Type of experiment: cell-based, B6D2F1 mice. The conditions noted are these: 10 micrograms per ml. As for the experimental part: Bone marrow cells from the femurs of B6D2F1 mice were used to establish long-term marrow cultures. After four weeks, when the stromal layer was confluent, the culture was treated with microphenolic acid in order to remove all cells from the stroma. New normal bone marrow cells (1×10^5 /ml) from the same source were then used to "recharge" the stromal layer. Palmitoyldeoxyguanosine was added to half of the cultures at a concentration of 10 micrograms per ml. Cells were counted on days 1, 3, 5, and 7 following addition of palmitoyldeoxyguanosine. On days 4 and 7 cells from the culture were removed, washed, and replated in methylcellulose. The number of granulo-monocytic colonies was counted one week later.

In experiment [6] the test system is FDCPmix cells. Description: Proliferation of FDCPmix cells, MTT assay (Example 69). The class given is cell-based. As for the experimental part: The FDCPmix cell line was used as a suitable in vitro model for predicting the effects of hematopoietic factors on pluripotential stem cells. These cells can be maintained in an-undifferentiated state in the presence of IL-3 or undergo multi-lineage development in the presence of specific hematopoietic growth factors.
This level of proliferation (100%) served as the control value. Inhibition of proliferation by test compounds was represented as a percent of control.
FDCPmix cells were plated at a density of 5×10^4 cells per well in 96-well plates (5×10^5 /ml) using IMDM medium plus 10% fetal bovine serum. […] Test compounds were added at a decreasing concentrations ranging from 10 micrograms/ml down to 1 nanogram/ml. The test compounds included: 3',5'-O-N^2 -tripalmitoyl-2'-deoxyguanosine, 3',5'-di-O-palmitoyl-2'-deoxyguanosine, 3',5'-O-N^2 -trioctanoyl-2'-deoxyguanosine, 3',5'-di-O-octanoyl-2'-deoxyguanosine, and 3',5'-O-N^2 -trioleyl-2'-deoxyguanosine.
(Tetrazolium assays rely on reduction of a dye to a coloured formazan, in cell work by metabolically active cells.)

Experiment [7] concerns hematopoiesis in normal mice. Kind of experiment: Hematopoiesis in normal mice (Example 56). The conditions noted are these: day 5, 2.6 μmoles/mouse, 4 days. Type of experiment: in vivo, Balb/C mice. As for the experimental part: Normal Balb/C female mice weighing approximately 20 grams each were given a daily 0.4 ml i.p. injection of either physiological saline (controls), palmitoylguanosine (2.6 μmoles/mouse), palmitoyldeoxyguanosine (2.6 μmoles/mouse), monopalmitoylguanosine 2',3'-acyclic dialcohol (2.6 μmoles/mouse), and palmitoyl-8-bromoguanosine (2.6 μmoles/mouse) for 4 days. On the fifth day all 3 animals in each of the 5 groups were bled and then sacrificed by cervical dislocation. Spleens were removed and weighed, and complete blood cell counts performed. Femoral bone marrow from each mouse was collected and a differential cell count performed on marrow smears.

[8] abbreviates: 48 h, read-out: Cell proliferation.

With palmitoylarabinosylhypoxanthine, the spleen weight entry in experiment [1] (day 7) was “significantly elevated on day 7 in all treatment groups except palmitoylarabinosylguanine and palmitoylarabinosylhypoxanthine”.

Take palmitoylarabinosylguanine: in experiment [1] (day 7), the spleen weight result is recorded as “significantly elevated on day 7 in all treatment groups except palmitoylarabinosylguanine”.

Regarding `CCCCCCCCCCCCCCCC(=O)Nc1nc2c(ncn2[C@H]2C[C@H](OC(=O)CCCCCCCCCCCCCCC)[C@@H](COC(=O)CCCCCCCCCCCCCCC)O2)c(=O)[nH]1` [TriPdG, 3',5'-O-N^2-tripalmitoyl-2'-deoxyguanosine], the Neutrophils in experiment [2] (5 days after CP) was 2.5 ± .3 K/μl; in experiment [2] (7 days after CP), 9.9 ± .9 K/μl; in experiment [3] (5 days after CP) it was 0.6 ± .1 K/μl; in experiment [3] (7 days after CP), 7.3 ± .3 K/μl; in experiment [4] (10 days after 5-FU, 1 mg/kg), 0.4 ± .2 K/μl; in experiment [4] (10 days after 5-FU, 5 mg/kg) it was 1.6 ± .4 K/μl. For the same compound, the Neutrophils in experiment [4] (10 days after 5-FU, 10 mg/kg) is 1.8 ± .4 K/μl; in experiment [4] (10 days after 5-FU, 25 mg/kg), 2.9 ± .4 K/μl; in experiment [4] (10 days after 5-FU, 50 mg/kg) it was 2.2 ± .5 K/μl. The WBC in experiment [2] (5 days after CP) is on record as 4.1 ± .4 K/μl; in experiment [2] (7 days after CP) it was 13.4 ± .4 K/μl; in experiment [3] (5 days after CP), 3.6 ± .4 K/μl; in experiment [3] (7 days after CP), 3.6 ± .4 K/μl; in experiment [4] (10 days after 5-FU, 1 mg/kg), 6.2 ± .4 K/μl; in experiment [4] (10 days after 5-FU, 5 mg/kg), 8.2 ± .9 K/μl. In addition, the WBC in experiment [4] (10 days after 5-FU, 10 mg/kg) was 7.7 ± .6 K/μl; in experiment [4] (10 days after 5-FU, 25 mg/kg), 11.4 ± .6 K/μl; in experiment [4] (10 days after 5-FU, 50 mg/kg) it was 10.8 ± 1.6 K/μl. The Spleen in experiment [2] (5 days after CP) is given as 77 ± 7 mg; in experiment [2] (7 days after CP), 156 ± 12 mg; in experiment [3] (5 days after CP), 73 ± 3 mg; in experiment [3] (7 days after CP), 198 ± 23 mg; in experiment [4] (7 days after 5-FU, 1 mg/kg) it was 74 ± 3 mg; in experiment [4] (7 days after 5-FU, 5 mg/kg) it was 78 ± 4 mg. Further, the Spleen is given as 83 ± 6 mg in experiment [4] (7 days after 5-FU, 10 mg/kg); 93 ± 5 mg in experiment [4] (7 days after 5-FU, 25 mg/kg); 102 ± 4 mg in experiment [4] (7 days after 5-FU, 50 mg/kg); 96 ± 13 mg in experiment [4] (10 days after 5-FU, 1 mg/kg); 157 ± 13 mg in experiment [4] (10 days after 5-FU, 5 mg/kg); 169 ± 24 mg in experiment [4] (10 days after 5-FU, 10 mg/kg). In addition, the Spleen in experiment [4] (10 days after 5-FU, 25 mg/kg) is listed as 293 ± 17 mg; in experiment [4] (10 days after 5-FU, 50 mg/kg), 320 ± 39 mg. For the same compound, the Platelets is 549 ± 25 K/μl in experiment [2] (7 days after CP); 330 ± 19 K/μl in experiment [3] (5 days after CP); 674 ± 37 K/μl in experiment [3] (7 days after CP); 457 ± 36 K/μl in experiment [4] (7 days after 5-FU, 1 mg/kg); 682 ± 66 K/μl in experiment [4] (7 days after 5-FU, 5 mg/kg); 571 ± 41 K/μl in experiment [4] (7 days after 5-FU, 10 mg/kg). Also, the Platelets in experiment [4] (7 days after 5-FU, 25 mg/kg) was determined as 587 ± 19 K/μl; in experiment [4] (7 days after 5-FU, 50 mg/kg), 596 ± 43 K/μl. Further, the Lymphocytes in experiment [4] (10 days after 5-FU, 1 mg/kg) is 5.7 ± .2 K/μl; in experiment [4] (10 days after 5-FU, 5 mg/kg), 6.3 ± .7 K/μl; in experiment [4] (10 days after 5-FU, 10 mg/kg), 5.7 ± .4 K/μl; in experiment [4] (10 days after 5-FU, 25 mg/kg), 8.3 ± .4 K/μl; in experiment [4] (10 days after 5-FU, 50 mg/kg) it was 8.3 ± 1.0 K/μl. The Cells is 1.9 ± .13 10^6 /flask in experiment [5] (day 1), 2.9 ± .10 10^6 /flask in experiment [5] (day 3), 7.7 ± .2 10^6 /flask in experiment [5] (day 5) and 4.3 ± .15 10^6 /flask in experiment [5] (day 7). The granulocyte/macrophage colony-forming units in experiment [5] (day 4) is 5123 ± 561 CFU-GM/flask; in experiment [5] (day 7), 33903 ± 9457 CFU-GM/flask. Moreover, in experiment [6] (10 micrograms/ml down), the inhibition of proliferation entry is “significant dose-dependent inhibitory effects at doses from 10 micrograms per ml down to 100 nanograms per ml”. In experiment [6] (setting [8]), the activity at 0.01 µg/mL came out at 78 ± 1%. Moreover, the activity at 0.039 µg/mL in experiment [6] (setting [8]) turned out to be 76 ± 2%. Also, in experiment [6] (setting [8]), the activity at 0.156 µg/mL is 72 ± 3%. For the same compound, the activity at 0.625 µg/mL in experiment [6] (setting [8]) worked out at 60 ± 2%. Moreover, in experiment [6] (setting [8]), the activity at 2.5 µg/mL is 51 ± 0.7%. The activity at 10 µg/mL in experiment [6] (setting [8]) came to 51 ± 0.6%.

Turning to `CCCCCCCCCCCCCCCC(=O)OCCOCn1cnc2c(=O)[nH]c(N)nc21` [1-O-palmitoylacyclovir, palmitoylacyclovir], in experiment [1] (day 5), the “white blood cell count” value is reported as “significantly elevated compared to controls in all but one treatment group (1-O-palmitoylacyclovir)”.

With “Palmitoylguanosine 2,3'-acyclic dialcohol”, the spleen weight entry in experiment [1] (day 5) is “significantly elevated”. In experiment [7], the platelet counts result is listed as “significantly elevated in the all of the treatment groups except palmitoylguanosine 2',3'-acyclic dialcohol” and the spleen weight result is listed as “significantly elevated”. In addition, the number of myelocytes result in experiment [7] (femoral bone marrow) was “significantly greater”.
